{
  "source": "patent US5594100A",
  "about": "“Epitope for prevention of type I diabetes” (Regents of the University of Colorado, priority 1995, dated 1997)",
  "origin": "cited, not measured here",
  "tested_on": "islet-specific T cell lines and clones from islet-infiltrating lymphocytes",
  "settings": "panel of nominally islet-specific lines and clones from female NOD mice",
  "data": [
    {"substance": "porcine insulin: Porcine insulin (Sigma) used for testing specificity of insulin-specific T cell lines and clones", "values": [
      {"measurement": "T cell lines and clones responding to porcine insulin", "value": "22 of 40"},
      {"measurement": "percent of T cell lines and clones responding to porcine insulin", "value": 55, "unit": "%"}
    ]}
  ]
}
